Source: ChEMBL document CHEMBL5724914, “Linking interpersonal differences in gut microbiota composition and drug biotransformation activity” (2024)

Assays:
[1] = (§1) The drug is tested on WLS-370 corresponding to human gut metagenome with ENA study accession number: PRJEB37062 and ENA sample accession number: ERS12561793 for biotransformation under anaerobic condition. The drug concentrations were measured over 9 timepoints collected between 0 and 24 hours of incubation by liquid-chromatography-coupled mass spectrometry (LC–MS); conditions: 2 µM
[2] = as §1, with “WLS-170” for “WLS-370”, “ERS12561762” for “ERS12561793”; conditions: 2 µM
[3] = as §1, with “WLS-098” for “WLS-370”, “ERS12561754” for “ERS12561793”; conditions: 2 µM
[4] = human gut metagenome, 24 h, 2 µM
[5] = human gut metagenome, 24 h, 2 µM; remark: listed apart in the source
[6] = human gut metagenome, 24 h, 2 µM; remark: listed apart in the source
[7] = human gut metagenome, 24 h, 2 µM; remark: listed apart in the source
[8] = human gut metagenome, 24 h, 2 µM; remark: listed apart in the source
[9] = human gut metagenome, 24 h, 2 µM; remark: listed apart in the source
[10] = human gut metagenome, 24 h, 2 µM; remark: listed apart in the source
[11] = human gut metagenome, 24 h, 2 µM; remark: listed apart in the source
[12] = human gut metagenome, 24 h, 2 µM; remark: listed apart in the source
[13] = human gut metagenome, 24 h, 2 µM; remark: listed apart in the source
Further: call rule not given here.

SMILES: CN(C)CCOC(c1ccc(Cl)cc1)c1ccccn1.O=C(O)/C=C\C(=O)O (stereo not drawn) [CARBINOXAMINE MALEATE]
- Bacterial Biotransformation [1]: Compound NOT metabolized
- Bacterial Biotransformation [2]: Compound metabolized
- Bacterial Biotransformation [3]: Compound NOT metabolized
- Bacterial Biotransformation [4]: Compound NOT metabolized
- Bacterial Biotransformation [5]: Compound NOT metabolized
- Bacterial Biotransformation [6]: Compound NOT metabolized
- Bacterial Biotransformation [7]: Compound NOT metabolized
- Bacterial Biotransformation [8]: Compound NOT metabolized
- Bacterial Biotransformation [9]: Compound metabolized
- Bacterial Biotransformation [10]: Compound NOT metabolized
- Bacterial Biotransformation [11]: Compound metabolized
- Bacterial Biotransformation [12]: Compound metabolized
- Bacterial Biotransformation [13]: Compound NOT metabolized
